This experiment addresses human neprilysin (EC 3.4.24.11; NEP) (Homo sapiens (Human), UniProt P08473). As to the kind of experiment: In vitro enzyme inhibition assay at human NEP (fluorogenic peptide substrate). It is filed as biochemical. As to conditions: pKi values at human NEP, recombinant human NEP. On the procedure:
In Vitro Assays for the Quantitation of Inhibitor Potencies at Human and Rat NEP, and Human ACE
The inhibitory activities of compounds at human and rat neprilysin (EC 3.4.24.11; NEP) and human angiotensin converting enzyme (ACE) were determined using in vitro assays as described below.
Recombinant human NEP and recombinant human ACE were obtained commercially (R&D Systems, Minneapolis, Minn., catalog numbers 1182-ZN and 929-ZN, respectively). The fluorogenic peptide substrate Mca-D-Arg-Arg-Leu-Dap-(Dnp)-OH (Medeiros et al. (1997) Braz. J. Med. Biol. Res. 30:1157-62; Anaspec, San Jose, Calif.) and Abz-Phe-Arg-Lys(Dnp)-Pro-OH (Araujo et al. (2000) Biochemistry 39:8519-8525; Bachem, Torrance, Calif.) were used in the NEP and ACE assays respectively.
The assays were performed in 384-well white opaque plates at 37° C. using the fluorogenic peptide substrates at a concentration of 10 μM in Assay Buffer (NEP: 50 mM HEPES, pH 7.5, 100 mM NaCl, 0.01% polyethylene glycol sorbitan monolaurate (Tween-20), 10 μM ZnSO4; ACE: 50 mM HEPES, pH 7.5, 100 mM NaCl, 0.01% Tween-20, 1 μM ZnSO4).
Test compounds were assayed over the range of concentrations from 10 μM to pM. Test compounds were added to the enzymes and incubated for 30 minute at 37° C. prior to initiating the reaction by the addition of substrate. Reactions were terminated after 20 minutes of incubation at 37° C. by the addition of glacial acetic acid to a final concentration of 3.6% (v/v).
Plates were read on a fluorometer with excitation and emission wavelengths set to 320 nm and 405 nm, respectively. Inhibition constants were obtained by nonlinear regression of the data using the equation (GraphPad Software, Inc., San Diego, Calif.): v=v0/[1+(I/K′)] where v is the reaction rate, v0 is the uninhibited reaction rate, I is the inhibitor concentration and K′ is the apparent inhibition constant.
Compounds of the invention were tested in this assay and found to have pKi values at human NEP as follows.
Sequence of human neprilysin (EC 3.4.24.11; NEP) (P08473 52-750): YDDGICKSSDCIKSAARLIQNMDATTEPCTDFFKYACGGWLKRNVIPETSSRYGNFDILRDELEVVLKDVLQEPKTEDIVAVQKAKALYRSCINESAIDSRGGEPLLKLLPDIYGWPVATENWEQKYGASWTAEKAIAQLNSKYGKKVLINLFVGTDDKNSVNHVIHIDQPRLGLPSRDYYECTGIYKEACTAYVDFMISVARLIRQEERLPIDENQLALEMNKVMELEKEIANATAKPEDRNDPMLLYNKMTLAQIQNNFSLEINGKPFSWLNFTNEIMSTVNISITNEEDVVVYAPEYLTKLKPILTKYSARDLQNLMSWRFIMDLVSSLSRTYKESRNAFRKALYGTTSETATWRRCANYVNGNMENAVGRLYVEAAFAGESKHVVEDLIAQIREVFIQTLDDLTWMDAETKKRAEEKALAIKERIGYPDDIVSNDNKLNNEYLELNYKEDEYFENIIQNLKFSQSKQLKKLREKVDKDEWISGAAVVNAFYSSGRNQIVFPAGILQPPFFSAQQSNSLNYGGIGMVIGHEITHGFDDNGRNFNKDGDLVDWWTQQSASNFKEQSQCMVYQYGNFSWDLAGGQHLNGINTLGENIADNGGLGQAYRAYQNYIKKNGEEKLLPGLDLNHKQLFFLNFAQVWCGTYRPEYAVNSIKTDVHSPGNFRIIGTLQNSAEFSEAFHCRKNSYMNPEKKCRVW
Regarding `CC(=O)c1cc(C(=O)N[C@H](Cc2ccc(-c3ccccc3)cc2)C[C@@H](O)C(=O)O)[nH]n1` [Example 1-B, (2R,4R)-4-[(5-Acetyl-2H-pyrazole-3-carbonyl)amino]-5-biphenyl-4-yl-2-hydroxypentanoic Acid], the negative-log Ki (pKi) (usually −log10 of the Ki, conventionally taken in molar units) is on record as at least 9.0. The same measure, in the same setting: with `O=C(N[C@H](Cc1ccc(-c2ccccc2)cc1)C[C@H](O)C(=O)O)c1cc(C(=O)O)[nH]n1` [Example 2-C, 5-((1R,3S)-1-Biphenyl-4-ylmethyl-3-carboxy-3-hydroxypropylcarbamoyl)-2H-pyrazole-3-carboxylic Acid] the figure was at least 9.0; with `O=C(N[C@H](Cc1ccc(-c2ccccc2)cc1)C[C@@H](O)C(=O)O)c1cc(C(=O)O)[nH]n1` [Example 2-D, 5-((1R,3R)-1-Biphenyl-4-ylmethyl-3-carboxy-3-hydroxypropylcarbamoyl)-2H-pyrazole-3-carboxylic Acid], at least 9.0. For the compound `COCCN(C)C(=O)c1cc(C(=O)N[C@H](Cc2ccc(-c3ccccc3)cc2)C[C@H](O)C(=O)O)[nH]n1` [Example 3-C, (2S,4R)-5-Biphenyl-4-yl-2-hydroxy-4-({5-[(2-methoxyethyl)methylcarbamoyl]-2H-pyrazole-3-carbonyl}amino)pentanoic Acid], the Ki (in general, a measure of affinity in units of concentration, obtained from inhibition or displacement) was 1.26 to 10 nM. Take `COCCN(C)C(=O)c1cc(C(=O)N[C@H](Cc2ccc(-c3ccccc3)cc2)C[C@@H](O)C(=O)O)[nH]n1` [Example 3-D, (2R,4R)-5-Biphenyl-4-yl-2-hydroxy-4-({5-[(2-methoxyethyl)methylcarbamoyl]-2H-pyrazole-3-carbonyl}amino)pentanoic Acid]: the pKi is reported as at least 9.0.

In the case of `O=C(N[C@H](Cc1ccc(-c2ccccc2)cc1)C[C@@H](O)C(=O)O)c1cc(C(=O)N2CCC2)n[nH]1` [Example 4-B, (2R,4R)-4-{[5-(Azetidine-1-carbonyl)-2H-pyrazole-3-carbonyl]amino}-5-biphenyl-4-yl-2-hydroxy-pentanoic acid], the negative logarithm of the Ki (pKi) was at least 9.0. The same measure, in the same setting: next, `O=C(N[C@H](Cc1ccc(-c2ccccc2)cc1)C[C@@H](O)C(=O)O)c1cc(C(=O)N2CCCC2)n[nH]1` [Example 5-B, (2R,4R)-5-Biphenyl-4-yl-2-hydroxy-4-{[5-(pyrrolidine-1-carbonyl)-2H-pyrazole-3-carbonyl]-amino}pentanoic Acid]: at least 9.0; `O=C(N[C@H](Cc1ccc(-c2ccccc2)cc1)C[C@@H](O)C(=O)O)c1cnc(O)nc1` [Example 6-B, (2R,4R)-5-Biphenyl-4-yl-2-hydroxy-4-[(2-hydroxypyrimidine-5-carbonyl)amino]pentanoic Acid]: at least 9.0. Still for that read-out and setting: with `O=C(N[C@H](Cc1ccc(-c2ccccc2)cc1)C[C@@H](O)C(=O)O)c1cc(O)no1` [Example 7-B, (2R,4R)-5-Biphenyl-4-yl-2-hydroxy-4-[(3-hydroxyisoxazole-5-carbonyl)amino]pentanoic Acid] the figure was at least 9.0; with `CC(C)(O)c1cc(C(=O)N[C@H](Cc2ccc(-c3ccccc3)cc2)C[C@@H](O)C(=O)O)n[nH]1` [Example 8-B, (2R,4R)-5-Biphenyl-4-yl-2-hydroxy-4-{[5-(1-hydroxy-1-methylethyl)-1H-pyrazole-3-carbonyl]amino}pentanoic acid], at least 9.0. With `NC(=O)[C@H](O)C[C@@H](Cc1ccc(-c2ccccc2)cc1)NC(=O)c1cnc(O)nc1` [Example 9, 2-Hydroxypyrimidine-5-carboxylic acid ((1R,3R)-1-biphenyl-4-ylmethyl-3-carbamoyl-3-hydroxypropyl)amide], the inhibition constant Ki is 12.6 to 100 nM.

Take `O=C(N[C@H](Cc1ccc(-c2ccccc2)cc1)C[C@@H](O)C(=O)O)c1cnn[nH]1` [Example 10-2, (2R,4R)-5-Biphenyl-4-yl-2-hydroxy-4-[(3H-[1,2,3]triazole-4-carbonyl)amino]pentanoic acid]: the inhibition constant Ki is 1.26 to 10 nM. As for `O=C(N[C@H](Cc1ccc(-c2ccccc2)cc1)C[C@@H](O)C(=O)O)c1cn(O)nn1` [Example 10-3, (2R,4R)-5-Biphenyl-4-yl-2-hydroxy-4-[(1-hydroxy-1H-[1,2,3]triazole-4-carbonyl)-amino]-pentanoic acid], the pKi is listed as at least 9.0.

For the compound `O=C(N[C@H](Cc1ccc(-c2ccccc2)cc1)CC(O)C(=O)O)c1nc[nH]n1` (stereo partly drawn) [Example 10-6, (R)-5-Biphenyl-4-yl-2-hydroxy-4-[(1H-[1,2,4]triazole-3-carbonyl)amino]pentanoic acid], the Ki was 12.6 to 100 nM.

As to `Cc1nc(C(=O)N[C@H](Cc2ccc(-c3ccccc3)cc2)CC(O)C(=O)O)nn1-c1ccc(Cl)cc1` (stereo partly drawn) [Example 10-7, (R)-5-Biphenyl-4-yl-4-{[1-(4-chlorophenyl)-5-methyl-1H-[1,2,4]triazole-3-carbonyl]-amino}-2-hydroxypentanoic acid], the inhibitory constant (Ki) is 12.6 to 100 nM.

With `O=C(N[C@H](Cc1ccc(-c2ccccc2)cc1)C[C@@H](O)C(=O)O)c1n[nH]c(O)n1` [Example 10-9, (2R,4R)-5-Biphenyl-4-yl-2-hydroxy-4-[(5-hydroxy-1H-[1,2,4]triazole-3-carbonyl)amino]-pentanoic acid], the Ki was 1.26 to 10 nM. Turning to `O=C(N[C@H](Cc1ccc(-c2ccccc2)cc1)CC(O)C(=O)O)c1nnc(-c2ccccn2)[nH]1` (stereo partly drawn) [Example 10-10, (R)-5-Biphenyl-4-yl-2-hydroxy-4-[(5-pyridin-2-yl-4H-[1,2,4]triazole-3-carbonyl)amino]pentanoic acid], the Ki is 1.26 to 10 nM. Same read-out and setting: with `Cc1n[nH]c(C(=O)N[C@H](Cc2ccc(-c3ccccc3)cc2)CC(O)C(=O)O)n1` (stereo partly drawn) [Example 10-11, (R)-5-Biphenyl-4-yl-2-hydroxy-4-[(5-methyl-2H-[1,2,4]triazole-3-carbonyl)amino]pentanoic acid] the figure was 12.6 to 100 nM; with `O=C(N[C@H](Cc1ccc(-c2ccccc2)cc1)C[C@@H](O)C(=O)O)c1nc(Cl)n[nH]1` [Example 10-12, (2R,4R)-5-Biphenyl-4-yl-4-[(5-chloro-2H-[1,2,4]triazole-3-carbonyl)amino]-2-hydroxypentanoic acid], 1.26 to 10 nM; with `O=C(O)c1cccc(Cn2nnc3cc(C(=O)N[C@H](Cc4ccc(-c5ccccc5)cc4)CC(O)C(=O)O)ccc32)c1` (stereo partly drawn) [Example 11-1, 3-[5-((R)-1-Biphenyl-4-ylmethyl-3-carboxy-3-hydroxypropylcarbamoyl)-benzotriazol-1-ylmethyl]-benzoic acid], 1.26 to 10 nM.

On to `O=C(O)c1ccc(Cn2nnc3cc(C(=O)N[C@H](Cc4ccc(-c5ccccc5)cc4)C[C@H](O)C(=O)O)ccc32)cc1` [Example 11-2, 4-[5-((1R,3S)-1-Biphenyl-4-ylmethyl-3-carboxy-3-hydroxypropylcarbamoyl)-benzotriazol-1-ylmethyl]-benzoic acid], for which the Ki was 12.6 to 100 nM. The same measure, in the same setting: next, `O=C(N[C@H](Cc1ccc(-c2ccccc2)cc1)CC(O)C(=O)O)c1ccc2[nH]nnc2c1` (stereo partly drawn) [Example 11-3, (R)-4-[(1H-Benzotriazole-5-carbonyl)amino]-5-biphenyl-4-yl-2-hydroxypentanoic acid]: 1.26 to 10 nM; `O=C(N[C@H](Cc1ccc(-c2ccccc2)cc1)CC(O)C(=O)O)c1cc(F)c2[nH]nnc2c1` (stereo partly drawn) [Example 11-4, (R)-5-Biphenyl-4-yl-4-[(7-fluoro-1H-benzotriazole-5-carbonyl)amino]-2-hydroxy-pentanoic acid]: 1.26 to 10 nM; `Cc1cc(C(=O)N[C@H](Cc2ccc(-c3ccccc3)cc2)CC(O)C(=O)O)cc2[nH]nnc12` (stereo partly drawn) [Example 11-6, (R)-5-Biphenyl-4-yl-2-hydroxy-4-[(7-methyl-3H-benzotriazole-5-carbonyl)amino]pentanoic acid]: 1.26 to 10 nM. Consider `O=C(N[C@H](Cc1ccc(-c2ccccc2)cc1)CC(O)C(=O)O)c1ccc2[nH]nnc2c1Cl` (stereo partly drawn) [Example 11-7, (R)-5-Biphenyl-4-yl-4-[(4-chloro-1H-benzotriazole-5-carbonyl)amino]-2-hydroxy-pentanoic acid], for which the Ki is 1.26 to 10 nM. Still for that read-out and setting: with `Cc1nc2ccc(C(=O)N[C@H](Cc3ccc(-c4ccccc4)cc3)CC(O)C(=O)O)cc2o1` (stereo partly drawn) [Example 11-8, (R)-5-Biphenyl-4-yl-2-hydroxy-4-[(2-methyl-benzooxazole-6-carbonyl)-amino]-pentanoic acid] the figure was 12.6 to 100 nM; with `O=C(N[C@H](Cc1ccc(-c2ccccc2)cc1)CC(O)C(=O)O)c1cnc2[nH]cnc2c1` (stereo partly drawn) [Example 11-9, (R)-5-Biphenyl-4-yl-2-hydroxy-4-[(3H-imidazo[4,5-b]pyridine-6-carbonyl)-amino]-pentanoic acid], 12.6 to 100 nM; with `O=C(N[C@H](Cc1ccc(-c2ccccc2)cc1)CC(O)C(=O)O)c1cnc2nn[nH]c2c1` (stereo partly drawn) [Example 11-11, (R)-5-Biphenyl-4-yl-2-hydroxy-4-[(1H-[1,2,3]triazolo[4,5-b]pyridine-6-carbonyl)-amino]-pentanoic acid], 1.26 to 10 nM.

Values taken from patent US10759813B2, “Neprilysin inhibitors” (THERAVANCE BIOPHARMA R&D IP, LLC, priority 2010, dated 2020).
